We go through 1 compound from patent US6069146A, “Halimide, a cytotoxic marine natural product, and derivatives thereof” (The Regents of the University of California, priority 1998, dated 2000).

Read-outs that look alike come from different tables or passages of the source.

For one assay, the system named is tubulin. Nature of the assay: Binding to tubulin. The following applies: each molecule of halimide to one tubulin molecule. The text has this:
(§1) Since cancer cells generally divide more rapidly than their normal cell counterpart, cancer cells generally are more susceptible than the normal cells to mitotic inhibitors such as halimide.

Assay [1] relates to human ovarian carcinoma cell line A2780. Description: MTS cytotoxicity assay, A2780. Format: cell-based. The following applies: read-out: IC50, inhibition of cell proliferation. The procedure: (§2) The cytotoxicity of halimide was assessed in vitro against the human colon carcinoma cell line HCT116 and the human ovarian carcinoma cell line A2780 by MTS assay (Ribs et al., Mol. Biol. Cell 3:184a (1992), which is incorporated herein by reference). Cells were plated at 4,000 cells/well in 96 well microliter plates and, after 24 hours, halimide (dissolved in DMSO) was added and serially diluted. The cells were incubated with the compound at 37° C. for 72 hours, then the tetrazolium dye MTS was added to a final concentration of 333 μg/ml and the electron coupling agent phenazine methosulfate was added to a final concentration of 25 μM. A dehydrogenase enzyme in live cells reduces the MTS to a form that absorbs light at […], which can be quantitated spectrophotometrically.
(§3) Assay results are expressed as an IC50, which is the drug concentration required to inhibit cell proliferation by 50% compared to growth of untreated control cells.

In assay [2] the test system is dividing cells (mitotic spindle). Nature of the assay: Mitotic spindle / cell division in dividing cells. It counts as cell-based. The following applies: exposure of dividing cells.
From the text: as §1

The test system of assay [3] is multi-drug resistant human colon carcinoma cells. Description: Cross-resistance, multi-drug resistant colon carcinoma cells. Format: cell-based.
Assay [4] concerns P388 mouse leukemia cells. Nature of the assay: In vivo P388 murine leukemia model, survival. On the procedure:
The efficacy of halimide was determined in vivo in a mouse P388 model. 1×10^6 P388 mouse leukemia cells were implanted in the intraperitoneal cavity of BALB/cX DBA/2 F1 (CDF1) or C57/BL6XDBA/2 F1 (BDF1) mice (Rose et al., Cancer Res. 43:1504-1510 (1983), which is incorporated herein by reference). Halimide was dissolved in ethanol and diluted with water to a concentration of 2.7 mg/ml. Halimide was injected intraperitoneally or intravenously beginning on the first day after tumor implantation and every day thereafter for five treatments. Increases in life span were reflected by the median survival time of treated (T) versus control (C) groups; T/C was calculated. For the P388 tumor model, a T/C […] 125% is considered to be a significant increase in survival. An optimal dose of 27 mg/kg/injection, ip, produced a T/C of 153%.

In assay [5] the test system is 2X cycled bovine brain tubulin. Nature of the assay: Inhibition of tubulin polymerization (2X cycled bovine brain tubulin, GTP). It counts as biochemical. The text has this:
Thus, the compounds of the invention have an activity similar to vinca alkaloids, but are chemically distinct from the vinca alkaloids.

Assay [6] concerns paclitaxel-resistant A2780 cell line with altered tubulin. Description: Collateral sensitivity, paclitaxel-resistant A2780. It counts as cell-based, human.
The next assay concerns Bcl-2. Nature of the assay: Bcl-2 phosphorylation. Format: cell-based.
The next assay deals with carcinoma cells. Nature of the assay: Cell cycle arrest of carcinoma cells. It counts as cell-based. The following applies: 5 μM halimide. The text has this:
As used herein, the term "premitotic stage," when used in reference to cells, means that the cells have not attained the anaphase stage of mitosis and, therefore, have not yet begun to divide. […] Thus, the invention provides a method of reducing or inhibiting the ability of the cells to proceed through mitosis and, therefore, proliferate, by contacting the cells with a compound of the invention.

Assay [7] concerns human colon carcinoma cell line HCT116. Nature of the assay: MTS cytotoxicity assay, HCT116. It counts as cell-based. The following applies: HCT-116, HCT116, 72 hours, read-out: IC50, inhibition of cell proliferation. The procedure:
as §2, §3

As to `C=CC(C)(C)c1nc[nH]c1/C=C1\NC(=O)C(Cc2ccccc2)NC1=O` (stereo not shown) [halimide], the “binding to tubulin (in words)” value with tubulin is “bound tightly to one tubulin molecule”. Further, the IC50 in assay [1] (A2780, 72 hours) turned out to be 820 nM; in assay [1] (Homo sapiens, A2780, 72 h), 800 nM; in [7] it was 1000 nM. Moreover, the “block of the cell in a premitotic stage (in words)” value in assay [2] was “blocked the cell in a premitotic stage within a few minutes; the cells did not divide”. Besides, in assay [2], the “effect on mitotic spindle (in words)” value is “disappearance of the mitotic spindle”. In addition, the “resistance of multi-drug resistant cells (in words)” value in assay [3] is “not resistant”. Moreover, in assay [4] (P388 model), the “survival of leukemia bearing mice (in words)” value is reported as “significantly prolongs the survival of leukemia bearing mice”. In addition, the “increase in life span” value in assay [4] (intraperitoneal injected P388 murine leukemia model) came to 53%. The compound further yielded an optimal dose in assay [4] (ip, P388 model) of 27 mg/kg/injection. Besides, the “T/C (median survival time of treated versus control)” value in assay [4] (optimal dose 27 mg/kg/injection, ip, daily for five treatments from first day after implantation) came out at 153%. Besides, the “inhibition of tubulin polymerization (in words)” value in [5] is “inhibited tubulin polymerization”. Besides, in [5] (20 μM halimide, in the presence of GTP), the “inhibition of tubulin polymerization” value amounted to 55%. Also, the “collateral sensitivity (in words)” value in [6] is listed as “collaterally sensitive”. Also, the “Bcl-2 hyperphosphorylation (in words)” value in the assay with Bcl-2 was “can hyperphosphorylate Bcl-2”. Further, the “cell cycle arrest (in words)” value in the assay on carcinoma cells was “arrested the cells at or near the G2/M boundary of the cell cycle”.
